In the supplement of paper PMC10307832:

Assays:
Assay in all cases: relative viability (nuclei count vs DMSO), 5 days (fraction); higher = more cells survive
[1] = compound: CN(C)CC1=CC(=CC=C1)N=C(C2=CC=CC=C2)C3=C(NC4=C3C=CC(=C4)C(=O)N(C)C)O + Nc1nc2[nH]cc(CCc3ccc(C(=O)N[C@@H](CCC(=O)O)C(=O)O)cc3)c2c(=O)[nH]1 [Pemetrexed] (partner 0.2 µM)
Procedure, shortened: (§1)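 Lung cancer cell lines were seeded in 1536-well plates and dosed by pin tool the next day, with either a single drug or a fixed anchor-drug dose combined with five library-drug doses (not always all listed) spaced in √10 steps. Five days later, one step fixed the cells and stained their nuclei (final 0.05% Triton X-100, 1% formaldehyde, 1 ug/ml Hoechst), and nuclei were counted on 4× images. Relative viability is the nuclei count in treated wells divided by the count in vehicle wells, and each value is the median of duplicate plates.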

[2] = compound: CN(C)CC1=CC(=CC=C1)N=C(C2=CC=CC=C2)C3=C(NC4=C3C=CC(=C4)C(=O)N(C)C)O + C[C@]1(O)C[C@@H](c2nc(-c3ccc4ccc(-c5ccccc5)nc4c3)c3c(N)nccn32)C1 [Linsitinib] (partner 1 µM)
Procedure, shortened: as §1

[3] = compound: CN(C)CC1=CC(=CC=C1)N=C(C2=CC=CC=C2)C3=C(NC4=C3C=CC(=C4)C(=O)N(C)C)O + O=C(c1cc(Cc2n[nH]c(=O)c3ccccc23)ccc1F)N1CCN(C(=O)C2CC2)CC1 [Olaparib] (partner 8 µM)
Procedure, shortened: as §1

[4] = compound: CN(C)CC1=CC(=CC=C1)N=C(C2=CC=CC=C2)C3=C(NC4=C3C=CC(=C4)C(=O)N(C)C)O + O=C(CCCCCCC(=O)Nc1ccccc1)NO [Vorinostat] (partner 1 µM)
Procedure, shortened: as §1

Cell Line | relative viability ([1]; first compound 0.08 µM) | relative viability ([1]; first compound 0.253 µM) | relative viability ([1]; first compound 0.8 µM) | relative viability ([1]; first compound 2.53 µM) | relative viability ([1]; first compound 8 µM) | relative viability ([2]; first compound 0.08 µM) | relative viability ([2]; first compound 0.253 µM) | relative viability ([2]; first compound 0.8 µM) | relative viability ([2]; first compound 2.53 µM) | relative viability ([2]; first compound 8 µM) | relative viability ([3]; first compound 0.08 µM) | relative viability ([3]; first compound 0.253 µM) | relative viability ([3]; first compound 0.8 µM) | relative viability ([3]; first compound 2.53 µM) | relative viability ([3]; first compound 8 µM) | relative viability ([4]; first compound 0.08 µM) | relative viability ([4]; first compound 0.253 µM) | relative viability ([4]; first compound 0.8 µM) | relative viability ([4]; first compound 2.53 µM) | relative viability ([4]; first compound 8 µM)
PC-3 [JPC-3] | 1.08 | 1.04 | 0.665 | 1.08 | 1.28 | 0.985 | 0.907 | 0.883 | 0.967 | 1.06 | 1.12 | 1.05 | 1.01 | 1.12 | 1.11 | 0.853 | 0.834 | 0.682 | 0.883 | 1.03
PC-14 | 0.13 | 0.13 | 0.147 | 0.15 | 0.135 | 0.98 | 0.954 | 0.96 | 0.874 | 0.998 | 0.325 | 0.212 | 0.23 | 0.294 | 0.312 | 0.576 | 0.675 | 0.833 | 0.687 | 0.592
RERF-LC-KJ | 0.473 | 0.453 | 0.491 | 0.443 | 0.499 | 0.912 | 0.93 | 0.81 | 0.948 | 0.87 | 0.971 | 0.906 | 0.882 | 0.9 | 0.904 | 0.744 | 0.703 | 0.605 | 0.64 | 0.681
SK-LU-1 | 1.01 | 0.941 | 1.03 | 0.961 | 0.781 | 1.05 | 1.2 | 1.27 | 1.17 | 0.77 | 0.483 | 0.47 | 0.516 | 0.431 | 0.385 | 0.796 | 0.861 | 0.735 | 0.847 | 0.581
SK-MES-1 | 0.961 | 0.881 | 1 | 0.89 | 0.897 | 1.1 | 1 | 1.07 | 0.918 | 0.988 | 0.634 | 0.698 | 0.588 | 0.629 | 0.522 | 1.13 | 1.08 | 1.08 | 1.01 | 1.03
SW 1573 | 0.823 | 0.83 | 0.987 | 0.792 | 0.768 | 0.735 | 0.829 | 0.731 | 0.73 | 0.731 | 0.362 | 0.416 | 0.419 | 0.523 | 0.377 | 0.616 | 1.08 | 0.958 | 0.744 | 0.55
UMC-11 | 0.779 | 0.752 | 0.839 | 0.714 | 0.736 | 1.01 | 0.986 | 0.985 | 0.999 | 0.926 | 0.37 | 0.368 | 0.344 | 0.371 | 0.349 | 0.318 | 0.399 | 0.41 | 0.364 | 0.34
